{
  "source": "patent US20210260051A1",
  "about": "“COMBINATION OF EZH2 INHIBITOR AND CHECKPOINT THERAPY FOR THE TREATMENT OF CANCER” (Board of Regents, The University of Texas System, priority 2018, published 2021)",
  "key": {"[1]": {"tested_on": "inducible regulatory T cells", "experiment": "Luminex-based cytokine analysis of iTreg culture supernatant", "format": "cell-based, mouse", "settings": "iTregs differentiated with vs without CPI-1205; FIG. 5C", "from_the_text": "FIGS. 5A-5C: Naïve T cells from FoxP3enhanced green fluorescent protein (eGFP) C57BL/6 mice that were differentiated into iTregs in the presence or absence of CPI-1205. GFP^+FoxP3^+ regulatory T cells were subsequently used for RNA sequencing analysis. (FIG. 5A) Ingenuity Pathway Analysis of RNA sequencing data of regulatory T cells differentiated in the presence of DMSO or CPI-1205. (FIG. 5B) Differentially expressed genes (DEGs) seen following differentiation of inducible regulatory T cells in presence of CPI-1205 or DMSO. (FIG. 5C) Luminex-based cytokine analysis of culture supernatant from inducible regulatory T cells following differentiation with CPI-1205 or DMSO. 2 tailed student t test was used to determine significance; NS, not significant. **p<0.01.\nTo understand CPI-1205-mediated molecular changes underlying the loss of suppressive activity of regulatory T cells, naïve murine T cells (CD4^+CD25^low CD44^low CD62^hi) from FoxP3-enhanced green fluorescent protein (eGFP) C57BL/6 mice were differentiated into iTregs in the presence or absence of CPI-1205. Purified GFP^+FoxP3^+ regulatory T cells were subsequently used for RNA sequencing analysis. […] The cytokine levels were subsequently examined in the culture supernatant of the iTregs that were differentiated with and without CPI-1205. […]"}, "MB49 (bladder) tumor": {"tested_on": "MB49 (bladder) tumor", "experiment": "MB49 tumor-bearing C57BL/6 mice", "format": "in vivo", "from_the_text": "FIGS. 3A-3F: Blocking expression of EZH2 mediated by anti-CTLA-4 using CPI-1205 increases the effectiveness of anti-CTLA-4 therapy. Tumor growth (FIG. 3A), survival (FIG. 3B) and percentages of intra-tumoral CD4^+CD25^+FoxP3^+ regulatory T cells, CD4^+ICOS^+T-bet^+ and CD8^+IFNγ^+ cells (FIG. 3C) in MB49 tumor-bearing mice treated with vehicle, anti CTLA-4, CPI-1205, or the combination. Tumor growth (FIG. 3D) and percentages of CD4^+IFNγ^+ cells and CD8^+TNFα^+ cells in the lymph nodes (LN) (FIG. 3E) of MB49 tumor-bearing Ezh2^fl/+ and FoxP3^CreEzh2^fl/fl mice treated with anti-CTLA-4 on days 7 and 9. (FIG. 3F) Tumor growth and survival of MB49 tumor-bearing Rag-1^−/− mice treated with vehicle or CPI-1205. Data are representative of three independent experiments (n=10 in each group; one-way ANOVA was used to determine significance between the groups. **p<0.01).\nIt was evaluated whether the combination of anti-CTLA-4 with CPI-1205 increases the effectiveness of anti-CTLA-4. MB49 (bladder) and B 16-F10 (melanoma) tumor-bearing C57BL/6 mice were treated with anti-CTLA-4 and the EZH2 inhibitor CPI-1205 as monotherapies and in combination.\nCell lines and tumor model. Murine bladder cancer cell line (MB49) were provided by Dr. A. Kamat (at The University of Texas MD Anderson Cancer Center) and murine melanoma cell line B16-F10 was obtained from Dr. I. Fidler (The University of Texas MD Anderson Cancer Center). 2×10^5 (MB49) or 2×10^5 (B16-F10) cells were injected subcutaneously or intradermally respectively, in the flanks of C57BL/6 mice (5 or 10 mice per group). […]\nTissue processing and flow cytometry. […] Staining with intracellular anti-Foxp3 (eBioscience, FJK-16 s), […] (eBioscience, PC61.5), antiKi-67 (eBioscience, SolA15), antiIFN-γ (BioLegend, XMG1.2), anti-TNF-α (BioLegend, MP6-XT22), and anti-EZH2 (Cell Signaling Technology, D2C9) were analyzed by flow cytometry according to the manufacturers’ instructions. Flow cytometry data were acquired on BD LSR II (BD Biosciences) and analyzed using FlowJo software (Tree Star, Ashland, Oreg.)."}},
  "data": [
    {"compound": "COc1cc(C)[nH]c(=O)c1CNC(=O)c1c(C)n([C@H](C)C2CCN(CC(F)(F)F)CC2)c2ccccc12", "note": "[CPI-1205, N-[(4-methoxy-6-methyl-2-oxo-1H-pyridin-3-yl)methyl]-2-methyl-1-[(1R)-1-[1-(2,2,2-trifluoroethyl)piperidin-4-yl]ethyl]indole-3-carboxamide]", "values": [
      {"measurement": "pro-inflammatory cytokines in the culture supernatant", "setting": "[1]", "value": "significantly increased"},
      {"measurement": "proportion of tumor-infiltrating cytotoxic T cells", "setting": "MB49 (bladder) tumor; in vivo in the murine model (model not named)", "value": "enhanced"},
      {"measurement": "B cell abundance", "setting": "MB49 (bladder) tumor; model not named", "value": "no difference"},
      {"measurement": "myeloid cells", "setting": "MB49 (bladder) tumor; model not named", "value": "effected certain subsets"}
    ]}
  ]
}
